Measurements published in patent US9926281B2 (priority 2014, dated 2018).

How the values were obtained:
[1] = target: human ADAMTS-5 (Homo sapiens (Human), UniProt Q9UNA0); conditions: read-out: hADAMTS-5 potency IC50
Description: Finally, the fluorescence is read on the Envision (Perkin Elmer) after an incubation of 90 min at 37° C.

[2] = target: human MMP14 (Homo sapiens (Human), UniProt P50281); conditions: read-out: hMMP-14 potency IC50
[3] = target: human MMP13 (Homo sapiens (Human), UniProt P45452); conditions: read-out: hMMP-13 potency IC50
Description: Human MMP13 is preactivated by incubated the enzyme in the same buffer complemented with 1 mM freshly prepared p-Aminophenylmercuric acetate (AMPA) for 1 hour at 37° C.

[4] = target: human TACE (Homo sapiens (Human), UniProt P78536); conditions: read-out: TACE potency IC50
Sequence of human TACE (P78536 whole entry, looked up, change not shown): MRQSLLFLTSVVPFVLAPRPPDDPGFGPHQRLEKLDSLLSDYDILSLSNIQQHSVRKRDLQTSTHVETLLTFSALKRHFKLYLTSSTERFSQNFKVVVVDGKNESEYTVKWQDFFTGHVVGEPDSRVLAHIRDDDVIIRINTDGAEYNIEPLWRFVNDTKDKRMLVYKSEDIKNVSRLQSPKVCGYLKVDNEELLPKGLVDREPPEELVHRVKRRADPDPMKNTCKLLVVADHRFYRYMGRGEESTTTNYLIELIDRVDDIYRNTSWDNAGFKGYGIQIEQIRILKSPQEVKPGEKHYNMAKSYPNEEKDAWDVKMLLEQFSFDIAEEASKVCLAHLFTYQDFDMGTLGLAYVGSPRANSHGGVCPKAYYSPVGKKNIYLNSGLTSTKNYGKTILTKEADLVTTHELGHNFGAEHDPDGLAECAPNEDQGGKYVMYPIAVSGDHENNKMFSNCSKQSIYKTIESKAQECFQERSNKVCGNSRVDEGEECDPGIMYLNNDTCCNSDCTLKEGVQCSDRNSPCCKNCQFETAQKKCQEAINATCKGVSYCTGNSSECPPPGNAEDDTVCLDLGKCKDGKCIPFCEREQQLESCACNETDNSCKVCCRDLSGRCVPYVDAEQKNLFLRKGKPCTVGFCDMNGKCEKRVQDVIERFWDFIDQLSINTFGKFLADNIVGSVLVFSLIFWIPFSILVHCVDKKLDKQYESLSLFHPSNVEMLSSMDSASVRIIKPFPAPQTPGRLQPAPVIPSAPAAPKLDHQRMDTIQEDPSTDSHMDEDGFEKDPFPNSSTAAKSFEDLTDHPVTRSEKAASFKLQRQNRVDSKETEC

Sequence of human ADAMTS-5 (Q9UNA0 262-930): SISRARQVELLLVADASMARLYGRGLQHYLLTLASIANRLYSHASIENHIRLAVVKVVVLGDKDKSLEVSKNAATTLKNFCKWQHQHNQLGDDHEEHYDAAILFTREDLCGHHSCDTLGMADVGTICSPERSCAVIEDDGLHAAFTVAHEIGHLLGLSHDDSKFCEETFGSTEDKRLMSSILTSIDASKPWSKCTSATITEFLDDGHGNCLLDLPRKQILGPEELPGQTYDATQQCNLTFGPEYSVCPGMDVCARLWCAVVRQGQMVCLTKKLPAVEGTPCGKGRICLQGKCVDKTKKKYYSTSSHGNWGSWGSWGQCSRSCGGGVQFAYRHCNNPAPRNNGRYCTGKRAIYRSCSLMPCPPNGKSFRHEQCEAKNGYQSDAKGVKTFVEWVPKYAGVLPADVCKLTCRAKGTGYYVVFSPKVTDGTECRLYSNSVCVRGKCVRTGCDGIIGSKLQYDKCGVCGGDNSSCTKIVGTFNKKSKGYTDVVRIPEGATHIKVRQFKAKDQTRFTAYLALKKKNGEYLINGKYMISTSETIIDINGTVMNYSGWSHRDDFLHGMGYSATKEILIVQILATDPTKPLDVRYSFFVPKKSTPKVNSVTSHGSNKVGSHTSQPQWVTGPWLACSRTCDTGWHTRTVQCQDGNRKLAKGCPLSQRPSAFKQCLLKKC

SMILES | IC50 [1] | IC50 [2] | IC50 [3] | IC50 [4]
CC(=O)NCC1(CCC(=O)N2CCN(c3cc(Cl)cc(Cl)c3)CC2)NC(=O)NC1=O (centres unmarked) [Cpd 223, N-[[4-[3-[4-(3,5-dichlorophenyl)piperazin-1-yl]-3-oxo-propyl]-2,5-dioxo-imidazolidin-4-yl]methyl]acetamide] | 70 nM | > 20000 nM | > 20000 nM | > 4000 nM
COCC1(CC(C)C(=O)N2CCN(c3ccc(F)c(F)c3)[C@@H](C)C2)NC(=O)NC1=O (stereo partly drawn) [compound 226, 5-[3-[(S)-4-(3,4-difluorophenyl)-3-methyl-piperazin-1-yl]-2-methyl-3-oxo-propyl]-5-(methoxymethyl)imidazolidine-2,4-dione] | 22 nM | 978 nM | 3270 nM | > 4000 nM
Cc1cccc(C2(CCC(=O)N3CCN(c4cc(F)cc(Cl)c4)[C@@H](C)C3)NC(=O)NC2=O)n1 (stereo partly drawn) [compound 307, 5-[3-[(3S)-4-(3-chloro-5-fluoro-phenyl)-3-methyl-piperazin-1-yl]-3-oxo-propyl]-5-(6-methyl-2-pyridyl)imidazolidine-2,4-dione] | 44 nM | > 20000 nM | – | 3590 nM
Cc1cccc(C2(CCC(=O)N3CCN(c4cccc(F)c4)[C@@H](C)C3)NC(=O)NC2=O)n1 (stereo partly drawn) [compound 308, 5-[3-[(3S)-4-(3-fluorophenyl)-3-methyl-piperazin-1-yl]-3-oxo-propyl]-5-(6-methyl-2-pyridyl)imidazolidine-2,4-dione] | 59 nM | > 20000 nM | – | > 4000 nM
Cc1cccc(C2(CCC(=O)N3CCN(c4cc(F)cc(F)c4)[C@@H](C)C3)NC(=O)NC2=O)n1 (stereo partly drawn) [compound 309, 5-[3-[(3S)-4-(3,5-difluorophenyl)-3-methyl-piperazin-1-yl]-3-oxo-propyl]-5-(6-methyl-2-pyridyl)imidazolidine-2,4-dione] | 31 nM | > 20000 nM | – | > 4000 nM
CC(CC1(C2CC2)NC(=O)NC1=O)C(=O)N1CCN(c2cncc(F)c2)[C@@H](C)C1 (stereo partly drawn) [compound 313, 5-cyclopropyl-5-[3-[(3S)-4-(5-fluoro-3-pyridyl)-3-methyl-piperazin-1-yl]-2-methyl-3-oxo-propyl]imidazolidine-2,4-dione] | 34 nM | > 20000 nM | – | > 20000 nM
C[C@H]1CN(C(=O)CCC2(c3cccnc3)NC(=O)NC2=O)CCN1c1ccc(F)c(Cl)c1 (stereo partly drawn) [compound 316, 5-[3-[(3S)-4-(3-chloro-4-fluoro-phenyl)-3-methyl-piperazin-1-yl]-3-oxo-propyl]-5-(3-pyridyl)imidazolidine-2,4-dione] | 61 nM | > 20000 nM | – | > 4000 nM
C[C@H]1CN(C(=O)CCC2(c3cccnc3)NC(=O)NC2=O)CCN1c1cc(F)cc(Cl)c1 (stereo partly drawn) [compound 317, 5-[3-[(3S)-4-(3-chloro-5-fluoro-phenyl)-3-methyl-piperazin-1-yl]-3-oxo-propyl]-5-(3-pyridyl)imidazolidine-2,4-dione] | 52 nM | 823 nM | – | > 4000 nM
C[C@H]1CN(C(=O)CCC2(c3cccnc3)NC(=O)NC2=O)CCN1c1cccc(F)c1 (stereo partly drawn) [compound 319, 5-[3-[(3S)-4-(3-fluorophenyl)-3-methyl-piperazin-1-yl]-3-oxo-propyl]-5-(3-pyridyl)imidazolidine-2,4-dione] | 94 nM | > 4000 nM | – | > 4000 nM
C[C@H]1CN(C(=O)CCC2(c3cccnc3)NC(=O)NC2=O)CCN1c1cc(F)cc(F)c1 (stereo partly drawn) [compound 320, 5-[3-[(3S)-4-(3,5-difluorophenyl)-3-methyl-piperazin-1-yl]-3-oxo-propyl]-5-(3-pyridyl)imidazolidine-2,4-dione] | 48 nM | > 20000 nM | – | > 4000 nM
C[C@H]1CN(C(=O)CCC2(c3cnccn3)NC(=O)NC2=O)CCN1c1cc(F)cc(Cl)c1 (stereo partly drawn) [compound 326, 5-[3-[(3S)-4-(3-chloro-5-fluoro-phenyl)-3-methyl-piperazin-1-yl]-3-oxo-propyl]-5-pyrazin-2-yl-imidazolidine-2,4-dione] | 52 nM | > 4000 nM | – | > 4000 nM
C[C@H]1CN(C(=O)CCC2(c3cnccn3)NC(=O)NC2=O)CCN1c1cc(F)cc(F)c1 (stereo partly drawn) [compound 327, 5-[3-[(3S)-4-(3,5-difluorophenyl)-3-methyl-piperazin-1-yl]-3-oxo-propyl]-5-pyrazin-2-yl-imidazolidine-2,4-dione] | 45 nM | > 4000 nM | – | > 4000 nM
C[C@H]1CN(C(=O)CCC2(c3cncnc3)NC(=O)NC2=O)CCN1c1cc(F)cc(F)c1 (stereo partly drawn) [compound 332, 5-[3-[(3S)-4-(3,5-difluorophenyl)-3-methyl-piperazin-1-yl]-3-oxo-propyl]-5-pyrimidin-5-yl-imidazolidine-2,4-dione] | 61 nM | 378 nM | – | > 20000 nM
C[C@@H](CC1(C2CC2)NC(=O)NC1=O)C(=O)N1CCN(c2cccc(-c3cn[nH]c3)c2)[C@@H](C)C1 (stereo partly drawn) [compound 339, 5-cyclopropyl-5-[(2S)-2-methyl-3-[(3S)-3-methyl-4-[3-(1H-pyrazol-4-yl)phenyl]piperazin-1-yl]-3-oxo-propyl]imidazolidine-2,4-dione] | 33 nM | 1230 nM | – | > 4000 nM
Cc1cncc(N2CCN(C(=O)C(C)CC3(C4CC4)NC(=O)NC3=O)C[C@@H]2C)c1 (stereo partly drawn) [compound 342, 5-cyclopropyl-5-[2-methyl-3-[(3S)-3-methyl-4-(5-methyl-3-pyridyl)piperazin-1-yl]-3-oxo-propyl]imidazolidine-2,4-dione] | 39 nM | 2600 nM | – | > 4000 nM
C[C@H]1CN(C(=O)CCC2(c3ccccn3)NC(=O)NC2=O)CCN1c1cc(F)cc(Cl)c1 (stereo partly drawn) [compound 346, 5-[3-[(3S)-4-(3-chloro-5-fluoro-phenyl)-3-methyl-piperazin-1-yl]-3-oxo-propyl]-5-(2-pyridyl)imidazolidine-2,4-dione] | 37 nM | > 4000 nM | – | > 4000 nM
C[C@H]1CN(C(=O)CCC2(c3cnccn3)NC(=O)NC2=O)CCN1c1cccc(F)c1 (stereo partly drawn) [compound 350, 5-[3-[(3S)-4-(3-fluorophenyl)-3-methyl-piperazin-1-yl]-3-oxo-propyl]-5-pyrazin-2-yl-imidazolidine-2,4-dione] | 62 nM | 1310 nM | – | > 20000 nM
CC(CC1(C2CC2)NC(=O)NC1=O)C(=O)N1CCN(c2cccnc2)[C@@H](C)C1 (stereo partly drawn) [compound 351, 5-cyclopropyl-5-[2-methyl-3-[(3S)-3-methyl-4-(3-pyridyl)piperazin-1-yl]-3-oxo-propyl]imidazolidine-2,4-dione] | 35 nM | 3840 nM | – | > 20000 nM
C[C@H]1CN(C(=O)CC[C@@]2(C3CC3)NC(=O)NC2=O)CCN1c1cc(F)cc(-c2cn[nH]c2)c1 [compound 357, (5S)-5-cyclopropyl-5-[3-[(3S)-4-[3-fluoro-5-(1H-pyrazol-4-yl)phenyl]-3-methyl-piperazin-1-yl]-3-oxo-propyl]imidazolidine-2,4-dione] | 25 nM | > 20000 nM | – | > 4000 nM
CCC1(C[C@H](C)C(=O)N2CCN(c3cncc(Cl)c3)[C@@H](C)C2)NC(=O)NC1=O (stereo partly drawn) [compound 359, 5-[(2S)-3-[4-(5-chloro-3-pyridyl)-3-methyl-piperazin-1-yl]-2-methyl-3-oxo-propyl]-5-ethyl-imidazolidine-2,4-dione] | 83 nM | 978 nM | – | > 12000 nM
CC(CC1(C)NC(=O)NC1=O)C(=O)N1CCN(c2ccc(F)cc2)[C@@H](C)C1 (stereo partly drawn) [compound 365, 5-[3-[(3S)-4-(4-fluorophenyl)-3-methyl-piperazin-1-yl]-2-methyl-3-oxo-propyl]-5-methyl-imidazolidine-2,4-dione] | 72 nM | > 20000 nM | – | > 9330 nM
Cc1cc(C2(CCC(=O)N3CCN(c4cc(F)cc(F)c4)[C@@H](C)C3)NC(=O)NC2=O)ccn1 (stereo partly drawn) [compound 367, 5-[3-[(3S)-4-(3,5-difluorophenyl)-3-methyl-piperazin-1-yl]-3-oxo-propyl]-5-(2-methyl-4-pyridyl)imidazolidine-2,4-dione] | 44 nM | > 20000 nM | – | > 4000 nM
CC(CC1(C)NC(=O)NC1=O)C(=O)N1CCN(c2cccc(-c3cn[nH]c3)c2)[C@@H](C)C1 (some centres unmarked) [compound 371] | 42 nM | 682 nM | – | > 3730 nM
C[C@@H](C[C@@]1(C)NC(=O)NC1=O)C(=O)N1CCN(c2cc(F)cc(-c3cn[nH]c3)c2)[C@@H](C)C1 [compound 375, 5-[3-[(3S)-4-[3-fluoro-5-(1H-pyrazol-4-yl)phenyl]-3-methyl-piperazin-1-yl]-2-methyl-3-oxo-propyl]-5-methyl-imidazolidine-2,4-dione] | 30 nM | > 20000 nM | – | 1130 nM
C[C@H]1CN(C(=O)CCC2(c3cn(C)cn3)NC(=O)NC2=O)CCN1c1cc(F)cc(Cl)c1 (stereo partly drawn) [compound 389, 5-[3-[(3S)-4-(3-chloro-5-fluoro-phenyl)-3-methyl-piperazin-1-yl]-3-oxo-propyl]-5-(1-methylimidazol-4-yl)imidazolidine-2,4-dione] | 40 nM | > 20000 nM | – | > 4000 nM
Cc1nc(C2(CCC(=O)N3CCN(c4cc(F)cc(F)c4)[C@@H](C)C3)NC(=O)NC2=O)c(C)o1 (stereo partly drawn) [compound 396, 5-[3-[(3S)-4-(3,5-difluorophenyl)-3-methyl-piperazin-1-yl]-3-oxo-propyl]-5-(2,5-dimethyloxazol-4-yl)imidazolidine-2,4-dione] | 53 nM | 7 nM | – | > 4000 nM
C[C@H]1CN(C(=O)CCC2(c3cnn(C)c3)NC(=O)NC2=O)CCN1c1cc(F)cc(F)c1 (stereo partly drawn) [compound 397, 5-[3-[(3S)-4-(3,5-difluorophenyl)-3-methyl-piperazin-1-yl]-3-oxo-propyl]-5-(1-methylpyrazol-4-yl)imidazolidine-2,4-dione] | 37 nM | 26 nM | – | > 4000 nM
